From US20220273638A1 (Belina Pharma AB, priority 2019, published 2022)

Columns and labels:
[1] = for HR, melanoma specific survival adjusted for Breslow thickness / HR, melanoma specific survival adjusted for Breslow thickness and lymph gland metastases: hazard ratio versus non-users; for survivability, comparative results adjusted for Breslow thickness: tables 1 and 2, adjusted for Breslow thickness; for effect on melanoma survival: regardless of age, gender and tumor status
Procedure: (§1) Both peri- and post-diagnostic antihistamine use was analyzed, using Cox regression models, as well as different subgroups of patients with regard to age, gender (as a proxy for sex) and tumor status.
(§2) Our study population included all of the 35,905 individuals with newly diagnosed melanoma from 2005 through 2014, identified using the Swedish National Quality Register for Malignant Skin Melanoma (hereafter referred to as the Melanoma Register), a database comprising all cases of malignant melanoma of the skin in Sweden since 1990. Melanoma in situ is not included in this register, nor melanoma in any other site than the skin. It has a coverage of approximately 98%, and in addition to variables such as age and TNM status, the Melanoma Register also includes information on the histopathology of the tumors, such as Breslow and Clark measures. Use of the six major antihistamines was established using the Swedish Prescribed Drug Register, a record of all dispensed prescribed pharmaceuticals in Sweden since July 1st 2005. To be included in the registry at least 2 weeks of prescription is required. Prescription free antihistamine use, non-dispensed doses, or use of other, less common, types of antihistamines is here considered non-use. Causes of death were obtained from the Swedish Cause of Death Register, a database where all deaths have been recorded since 1952. Data was pseudo-anonymized and the study was approved by the Regional Ethics Board.
(§3) For the cumulative post-diagnostic antihistamine use analysis, mortality rates for antihistamine users were compared to those of non-users through a Cox regression model allowing for time varying covariates, and survival time was measured in years since diagnosis. This allowed for a single individual to provide data as both a non-user and user of different antihistamines.
(§4) The impact of the cumulative DDDs was assessed after log transformation of the DDDs plus one3. Cox regression analyses were stratified for patient age at diagnosis, tumor size and node status (T and N status, respectively). A lag-time analysis was performed as described by Tamim et al. and Richardson et al. Statistical analyses were performed using R version XXX6.

[2] = Nation-wide register-based study, Cox regression: overall mortality/survival by antihistamine use; format: in vivo, human; conditions: hazard ratio versus non-users
Procedure: as §1, §2, §3, §4

[3] = use 6 months before and after diagnosis; adjusted for Breslow, sentinel lymph node status and education level
[4] = Risk of developing a second (new primary) melanoma after the first melanoma diagnosis; format: in vivo, human; conditions: for HR, risk of a new primary melanoma: use longer than 3 years after the first diagnosis, adjusted for age and sex, p<0.05
[5] = somnolence, tachycardia and headache reported; cited from earlier work

Compound | HR, melanoma specific survival adjusted for Breslow thickness [1] | HR, melanoma specific survival adjusted for Breslow thickness and lymph gland metastases [1] | survivability, comparative results adjusted for Breslow thickness [1] | HR, overall survival adjusted for Breslow thickness [2] | HR, overall survival adjusted for Breslow thickness and lymph gland metastases [2] | HR, peridiagnostic use, melanoma mortality [3] | effect on melanoma survival [1] | melanoma specific mortality HR, Men <65 ([1]; Men <65, 95% CI in brackets) | melanoma specific mortality HR, Men >65 ([1]; Men >65, 95% CI in brackets) | melanoma specific mortality HR, Women <65 ([1]; Women <65, 95% CI in brackets) | melanoma specific mortality HR, Women >65 ([1]; Women >65, 95% CI in brackets) | melanoma specific mortality HR, looking at DDD:s ([1]; by defined daily doses (DDDs), 95% CI in brackets) | risk of a new primary melanoma, follow up counted from day 1 [4] | HR, risk of a new primary melanoma [4] | symptoms in connection with overdoses [5]
O=C(O)COCCN1CCN(C(c2ccccc2)c2ccc(Cl)cc2)CC1 (centres unmarked) [Cetirizine, cetirizine] | 1.006 | 1.014 | lack of improval of survivability | 1 | 0.991 | 0.962 |  |  |  |  |  |  |  |  | 
CN1CCC[C@@H]1CCO[C@](C)(c1ccccc1)c1ccc(Cl)cc1 [Clemastine, clemastine] | 1.027 | 0.993 | lack of improval of survivability | 1.114 | 1.101 | 1.005 | consistently negative effect |  |  |  |  |  |  |  | 
Clc1ccc2c(c1)CCc1cccnc1C2=C1CCNCC1 [Desloratadine, desloratadine] | 0.883 | 0.889 |  | 0.95 | 0.953 | 0.569 | consistently beneficial effect | 0.69 (0.37-1.29) | 0.77 (0.45-1.33) | 0.57 (0.25-1.28) | 0.80 (0.44-1.45) | 0.93 (0.87-1.00) | No significant difference | 0.88 | 
CC(C)(C)c1ccc(C(=O)CCCN2CCC(OC(c3ccccc3)c3ccccc3)CC2)cc1 [Ebastine, ebastine] | 1.138 | 1.03 | lack of improval of survivability | 1.117 | 1.076 | 1.032 |  |  |  |  |  |  |  |  | 
CC(C)(C(=O)O)c1ccc(C(O)CCCN2CCC(C(O)(c3ccccc3)c3ccccc3)CC2)cc1 (centres unmarked) [Fexofenadine, fexofenadine] | 0.979 | 0.935 | lack of improval of survivability | 1.011 | 1.013 | 0.901 |  |  |  |  |  |  |  |  | 
CCOC(=O)N1CCC(=C2c3ccc(Cl)cc3CCc3cccnc32)CC1 [Loratadine, loratadine] | 0.858 | 0.851 |  | 0.962 | 0.964 | 0.534 | consistently beneficial effect |  |  |  |  |  | No significant difference | 0.88 | increase the incidence of anticholinergic symptoms
